Results as given in PMC12106687 (Nature Communications, 2025).

Molecular target: HECTD1 (Homo sapiens, UniProt Q9ULT8)
Test: in-cell competitive QTRP
Type: biochemical
Settings: covalent; C1368; […], […] h in HEK293T cells

HECTD1, sequence (Q9ULT8 whole entry): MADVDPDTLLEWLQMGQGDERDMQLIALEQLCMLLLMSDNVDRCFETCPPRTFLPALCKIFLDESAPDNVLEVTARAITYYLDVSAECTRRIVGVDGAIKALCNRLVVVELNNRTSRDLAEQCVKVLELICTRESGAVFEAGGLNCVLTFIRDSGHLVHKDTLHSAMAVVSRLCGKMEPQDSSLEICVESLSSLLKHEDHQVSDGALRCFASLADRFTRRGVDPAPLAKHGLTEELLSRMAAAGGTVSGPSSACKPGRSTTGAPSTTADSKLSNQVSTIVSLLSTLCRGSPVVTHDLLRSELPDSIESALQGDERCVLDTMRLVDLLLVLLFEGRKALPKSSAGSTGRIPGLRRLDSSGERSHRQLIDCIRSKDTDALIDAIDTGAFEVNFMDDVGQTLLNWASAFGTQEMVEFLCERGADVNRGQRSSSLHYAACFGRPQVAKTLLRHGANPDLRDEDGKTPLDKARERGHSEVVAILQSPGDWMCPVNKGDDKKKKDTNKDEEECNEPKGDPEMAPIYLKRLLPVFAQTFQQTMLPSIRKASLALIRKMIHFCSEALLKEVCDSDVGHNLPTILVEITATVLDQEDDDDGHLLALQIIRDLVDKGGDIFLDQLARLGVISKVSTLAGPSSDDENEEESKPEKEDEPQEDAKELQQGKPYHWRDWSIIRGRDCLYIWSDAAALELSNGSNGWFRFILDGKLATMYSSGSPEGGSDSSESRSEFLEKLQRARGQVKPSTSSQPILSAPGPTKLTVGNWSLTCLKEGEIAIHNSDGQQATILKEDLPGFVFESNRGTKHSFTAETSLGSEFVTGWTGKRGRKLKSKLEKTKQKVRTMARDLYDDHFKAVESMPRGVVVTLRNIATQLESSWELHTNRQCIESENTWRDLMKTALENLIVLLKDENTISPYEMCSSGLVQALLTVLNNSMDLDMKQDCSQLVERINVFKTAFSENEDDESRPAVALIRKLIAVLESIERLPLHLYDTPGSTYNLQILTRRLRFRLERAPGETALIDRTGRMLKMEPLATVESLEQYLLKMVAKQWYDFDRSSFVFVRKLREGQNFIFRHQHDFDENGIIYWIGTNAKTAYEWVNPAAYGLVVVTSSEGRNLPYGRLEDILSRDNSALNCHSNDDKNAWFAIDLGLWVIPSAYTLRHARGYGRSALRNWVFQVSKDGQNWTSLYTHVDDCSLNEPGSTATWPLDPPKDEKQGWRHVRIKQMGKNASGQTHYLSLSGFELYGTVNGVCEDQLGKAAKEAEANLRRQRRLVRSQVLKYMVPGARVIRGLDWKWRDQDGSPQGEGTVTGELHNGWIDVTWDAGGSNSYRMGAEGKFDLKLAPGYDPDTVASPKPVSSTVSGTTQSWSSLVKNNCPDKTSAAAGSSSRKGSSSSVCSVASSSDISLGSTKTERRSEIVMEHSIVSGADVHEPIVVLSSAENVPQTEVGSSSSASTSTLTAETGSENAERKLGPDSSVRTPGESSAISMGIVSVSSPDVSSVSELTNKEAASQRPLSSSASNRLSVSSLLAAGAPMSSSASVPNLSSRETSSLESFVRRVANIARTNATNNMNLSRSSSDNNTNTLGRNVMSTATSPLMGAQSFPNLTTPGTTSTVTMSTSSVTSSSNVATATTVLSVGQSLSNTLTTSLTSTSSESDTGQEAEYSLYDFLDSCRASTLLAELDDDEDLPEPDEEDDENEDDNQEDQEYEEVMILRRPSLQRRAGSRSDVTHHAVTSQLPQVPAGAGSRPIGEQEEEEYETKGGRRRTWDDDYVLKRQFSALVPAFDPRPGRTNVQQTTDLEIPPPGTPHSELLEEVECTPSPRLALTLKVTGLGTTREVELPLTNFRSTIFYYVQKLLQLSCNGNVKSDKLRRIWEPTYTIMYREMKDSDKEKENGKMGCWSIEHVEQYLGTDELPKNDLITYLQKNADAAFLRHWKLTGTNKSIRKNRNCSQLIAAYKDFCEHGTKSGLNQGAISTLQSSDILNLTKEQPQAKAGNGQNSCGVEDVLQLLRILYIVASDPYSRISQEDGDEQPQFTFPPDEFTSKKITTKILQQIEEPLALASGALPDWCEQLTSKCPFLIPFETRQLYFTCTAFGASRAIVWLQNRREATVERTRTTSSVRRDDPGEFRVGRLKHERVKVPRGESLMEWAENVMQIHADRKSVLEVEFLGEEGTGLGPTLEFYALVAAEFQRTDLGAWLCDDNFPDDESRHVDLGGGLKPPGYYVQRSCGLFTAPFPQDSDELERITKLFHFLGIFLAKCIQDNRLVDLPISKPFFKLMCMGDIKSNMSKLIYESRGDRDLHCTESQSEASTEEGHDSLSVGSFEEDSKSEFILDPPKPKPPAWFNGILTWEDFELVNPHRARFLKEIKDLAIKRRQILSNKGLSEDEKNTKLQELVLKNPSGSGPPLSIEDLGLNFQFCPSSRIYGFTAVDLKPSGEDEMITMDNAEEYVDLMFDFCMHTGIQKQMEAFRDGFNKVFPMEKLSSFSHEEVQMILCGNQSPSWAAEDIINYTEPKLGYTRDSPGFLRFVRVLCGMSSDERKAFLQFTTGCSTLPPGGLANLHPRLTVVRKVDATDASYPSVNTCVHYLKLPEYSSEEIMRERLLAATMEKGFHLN

Question: With C=C(CC)C(=O)c1ccc(OCC(=O)O)c(Cl)c1Cl [etacrynic acid] as the compound, how does the RH/L read?
Answer: the etacrynic acid-engaged C1368 of HECTD1 is spatially distant from the active site
